In patent publication US20240366587A1, “USES OF A SOMATOSTATIN MODULATOR FOR THE TREATMENT OF DISEASE” (Crinetics Pharmaceuticals, Inc., priority 2021, published 2024):
“And” between values parts separate entries of the source, which are not always exact repeats. Equal entries are not always repeated.

Assays:
subjects with acromegaly [1] = test: ACROBAT Advance long-term study: safety and tolerability; assay type: in vivo, human; settings: acromegaly patients; including in combination with cabergoline
Experimental: (§1) ACROBAT Advance is an ongoing open-label, long-term (5 year) safety and efficacy study of paltusotine in patients rolling-over from the ACROBAT Evolve & Edge studies.
(§2) Eligible patients completing ACROBAT Edge and Evolve entered ACROBAT Advance either immediately on completion of a washout period in the parent study or after a gap during which they reverted to their routine standard of care treatment. Paltusotine therapy: initiated at 10 mg/day and titrated up to maximum dose of 40 mg/day based on IGF-1 and tolerability. Patients were administered 10 mg HMG capsules. Combination therapy was allowed for patients not reaching therapeutic targets with 40 mg/day of paltusotine monotherapy.

[2] = Clinical studies: bioavailability and half-life of Compound A; assay type: in vivo; settings: human, plasma, oral
Description: Compound A is a selective nonpeptide SST2 biased agonist. […] In some embodiments, Compound A is used to treat acromegaly, neuroendocrine tumors, or both. In some embodiments, Compound A is used to treat acromegaly. In some embodiments, Compound A is used to treat neuroendocrine tumors. In some embodiments, Compound A is used to treat pituitary gigantism.

growth hormone (GH) = test: ACROBAT Edge Phase 2 study in acromegaly: GH levels; assay type: in vivo, human
Experimental: (§3) An open label exploratory study designed to evaluate the safety, efficacy, and pharmacokinetics of Compound A (also known as paltusotine) in subjects with acromegaly that are treated with somatostatin analogue (SSA) based treatment regimens.
(§4) 5 mg or 10 mg HMG capsule formulation. Multiple capsules were swallowed with water depending on dose specified for a given period/cohort. Enrolled patients began treatment with oral paltusotine 10 mg/day. The dose was up-titrated in a double-blind manner in 10-mg increments to a maximum 40 mg/day at weeks 4, 7 and 10 according to IGF-1 levels measured at weeks 2, 5, and 8, respectively. Up-titrations were performed if the investigator confirmed that the patient was tolerating the current dose and the unblinded central IGF-1 reader determined that IGF-1 was >0.9×ULN at week 2 and 5 or >1.0×ULN at week 8.

[3] = system: insulin-like growth factor-1 (IGF-1); test: ACROBAT Edge Phase 2 study in acromegaly: IGF-1 levels; assay type: in vivo, human
Experimental: as §3, §4
Primary Outcome Measures: Change from baseline (mean of Screening values) in insulin-like growth factor-1 (IGF-1) level [Time Frame: 13 Weeks].
The primary hypothesis was that the group would show no change in the median IGF-1 at Week 13 versus baseline.

IGF-1 [4] = test: ACROBAT Advance long-term study: IGF-1; assay type: in vivo, human; settings: once daily oral, 10-40 mg/day HMG capsules; interim results
Experimental: as §1, §2
IGF-1 measured centrally with IDS-ISYS assay calibrated to WHO recombinant reference standard 02/254.

subjects with acromegaly [5] = test: ACROBAT Edge: patient reported outcomes (Acromegaly Symptom Diary, PGI-I); assay type: in vivo, human
Experimental: Patients recorded daily acromegaly symptoms using a nine-item Acromegaly Symptom Diary (ASD). The ASD is a 9-item patient-reported measure of symptoms associated with acromegaly, including headache, joint pain, sweating, fatigue, leg weakness, swelling, numbness/tingling, sleep difficulties, and short-term memory difficulties. Symptoms experienced in the previous 24 hours are rated on an 11-point scale, from 0 (no symptom) to 10 (worst symptom). Patient Global Impression of Improvement (PGI-I) scale was completed at week 13 (end of treatment).

[6] = Phase 1 single-and-multiple-dose study in healthy volunteers: oral glucose tolerance test / safety; assay type: in vivo, human; settings: for change in fasting plasma glucose: multiple dosing up to 30 mg; for treatment emergent adverse events of hyperglycemia: repeated daily dosing 5-30 mg, OGTT after 10 days of dosing; for glucose concentration by 2 hours post challenge / peak glucose concentration 1 hour post oral glucose challenge: one subject
Experimental: A phase 1, randomized, double-blind, placebo-controlled, single and multiple ascending dose study was performed with oral Compound A at a single study center. Inclusion criteria included age 18 to 50 years; body mass index of 18-30 kg/m^2; and if female, postmenopausal by history or surgery. Exclusion criteria included presence of significant medical history.
In the single-dose phase, participants were randomized 6:2 to Compound A (1.25, 2.5, 5, 10, 20, 40, and 60 mg) or placebo in 7 cohorts (S1 to S7). Cohorts comparing oral bioavailability of solution versus capsules and the effect of a standardized high-fat, high-calorie breakfast on oral bioavailability of the capsule formulation employed the 10 mg dose level. In the multiple-dose phase, participants were randomized 6:3 to once-daily oral Compound A-HCl capsules or placebo at doses of 5 mg for 7 days (M1, Day Last=Day 7), and 10, 20, and 30 mg daily for 10 days (M2, M3, M4, Day Last=Day 10).
Safety assessments: Safety assessments included monitoring of clinical laboratory tests, cardiovascular safety monitoring (continuous Holter monitoring, ECG, telemetry), and physical examinations conducted at scheduled times throughout the study in the research units as well as post-discharge (up to 9 days after the single-dose, or up to 11 days after the last dose for multiple-dose cohorts). Adverse events and concomitant medications were recorded. Laboratory samples for clinical chemistry, hematology, coagulation tests, and urinalysis were collected under fasted conditions.
In the multiple-dose cohorts, baseline serum TSH, ACTH, and prolactin samples were collected on Day −2, and an oral glucose tolerance test (OGTT) was conducted on Day −7 or earlier. These assessments were repeated on Day 8 (M1) or Day 11 (M2 and subsequent cohorts).
Clinically significant hypoglycemia occurred in 1 subject in Cohort M3 (Compound A-HCl−10 days at 20 mg/day) at 2 and at 3 hours post-glucose challenge, and in 1 subject in Cohort M4 (Compound A-HCl−10 days at 30 mg/day) at 3 hours post-glucose challenge at the baseline assessment (Day −7).

[7] = Phase 1 multi-cohort single dose study: relative bioavailability and PK of SDD tablets vs HMG capsules; assay type: in vivo, human
Experimental: The study was conducted in up to 3 cohorts, each with a specific primary objective: • Cohort 1: To characterize performance of 10 mg tablets prepared by spray-dried dispersion (SDD) of Compound A-HCl salt. • Cohort 2: To evaluate the relative bioavailability of 10 mg SDD tablets compared to the Compound A-HCl hot melt granulation (HMG) formulation, 10 mg capsules. To determine the effect of timing of food administration on pharmacokinetics of low dose of the 10 mg SDD tablets. • Cohort 3: To determine the effect of timing of food administration on pharmacokinetics of SDD tablets and dose proportionality in doses higher than 20 mg. To determine the optimal dosing regimen that results in adequate systemic exposure with short post-dose fasting duration. • Cohort 4: To determine the effect of timing of food administration on pharmacokinetics of SDD tablets in doses higher than 20 mg. To determine the optimal dosing regimen of paltusotine that results in high systemic exposure with low post-dose fasting duration • Cohort 5: To determine the effect of the proton-pump inhibitor (PPI), lansoprazole, on the pharmacokinetics of a 60 mg dose of SDD tablets. To determine the effect of a low-fat meal on the pharmacokinetics of a 60 mg dose of SDD tablets.
The SDD tablets were evaluated. Up to twelve (12) healthy male and female subjects were enrolled in each cohort. Cohort 1 consisted of 4 periods: In Period 1, subjects were administered a proton-pump inhibitor (lansoprazole, 15 mg BID for 3 days (from Day −3), taken orally at least 30 min prior to a meal, once in the morning and once in the evening). On the fourth day (Day 1 of study), fasted subjects will take the last dose of lansoprazole (15 mg) 60 min prior to 20 mg Compound A (2×10 mg of the SDD tablets). In Period 2, fasted subjects were administered 20 mg Compound A (2×10 mg of the SDD tablets). In Period 3, fasted subjects were administered 20 mg Compound A (2×10 mg of the SDD tablets) with a high-fat, high-calorie meal. In Period 4, fasted subjects will take up to 80 mg Compound A (up to 8×10 mg of the SDD tablets). […]

IGF-1 [8] = test: Phase 2 clinical trials of acromegaly patients previously treated with LA-SRLs: steady state IGF-1 change by dose; assay type: in vivo, human; settings: baseline = IGF-1 at last LA-SRL injection
Description: The switch to Compound A-monohydrochloride occurred 4 weeks after last LA-SRL injection.

[9] = Cohort M2 (10 mg/day, 10 days), monohydrochloride
[10] = Cohort M3 (20 mg/day, 10 days), monohydrochloride

N#Cc1cccc(-c2ccc3ncc(-c4cc(F)cc(F)c4)c(N4CCC(N)CC4)c3c2)c1O [Compound A, 3-(4-(4-amino-piperidin-1-yl)-3-(3,5-difluoro-phenyl)-quinolin-6-yl)-2-hydroxy-benzonitrile]
tolerability and safety profile (subjects with acromegaly [1]): well tolerated with a safety profile similar to that of SRLs
bioavailability ([2]; read-out: estimated bioavailability): ~70%
half-life ([2]; read-out: observed half-life): 42 to 50 h
change of GH levels from baseline after 13 weeks of treatment (growth hormone (GH); acromegaly patients previously treated with injected SRL depots): did not significantly change from baseline levels
GH after withdrawal of treatment (growth hormone (GH); acromegaly patients, washout): Rise in GH after withdrawal
change of IGF-1 levels from baseline after 13 weeks of treatment ([3]; acromegaly patients previously treated with injected SRL depots, 10-40 mg/day): did not significantly change from baseline
IGF-1 after withdrawal of treatment ([3]; acromegaly patients, washout): Rise in IGF-1 after withdrawal (within 2 weeks)
IGF-1 level on long-term treatment (IGF-1 [4]): lowers and maintains IGF-1 at levels comparable to prior injected SRL therapy for up to 51 weeks
change in total ASD score from Baseline to week 13/EoT, median (IQR) (subjects with acromegaly [5]; n=18, score range 0-70): −0.43 (−5.0, 2.4)
patients "minimally improved" or "no change" on PGI-I (subjects with acromegaly [5]; week 13/EoT): 26 (55.3%) patients
patients reporting worsening on PGI-I (subjects with acromegaly [5]; week 13/EoT): No patients reported any degree of worsening
patients "very much improved" or "much improved" on PGI-I (subjects with acromegaly [5]; week 13/EoT, compared to before the study, while treated with depot SRLs): 11 (23.4%) patients
change in fasting plasma glucose ([6]; healthy volunteers): not associated with significant changes in fasting plasma glucose
treatment emergent adverse events of hyperglycemia ([6]; healthy volunteers): Two TEAEs of asymptomatic hyperglycemia occurred
increase from baseline in serum glucose AUC0-3 hr ([6]; healthy volunteers, up to 30 mg, placebo 18%): up to 36%
glucose concentration by 2 hours post challenge ([6]; Cohort M2 (10 mg/day, 10 days)): 4.3 mmol/L and 77 mg/dL
peak glucose concentration 1 hour post oral glucose challenge ([6]; Cohort M2 (10 mg/day, 10 days)): 12.4 mmol/L and 223 mg/dL
glucose concentration by 2 hours post challenge ([6]; Cohort M3 (20 mg/day, 10 days)): 5.8 mmol/L and 104 mg/dL
peak glucose concentration 1 hour post oral glucose challenge ([6]; Cohort M3 (20 mg/day, 10 days)): 12.2 mmol/L and 220 mg/dL
reduction of exposures (Cmax and AUC) when administered with PPI ([7]; Cohort 5, 60 mg SDD tablets): ~40%
reduction of exposures (Cmax and AUC) when administered with low-fat meal ([7]; Cohort 5, 60 mg SDD tablets): ~60%
reduction of exposures when administered with high-fat meal ([7]; SDD tablets): > 80%

Cl.N#Cc1cccc(-c2ccc3ncc(-c4cc(F)cc(F)c4)c(N4CCC(N)CC4)c3c2)c1O [Compound A-HCl, 3-[4-(4-amino-piperidin-1-yl)-3-(3,5-difluoro-phenyl)-quinolin-6-yl]-2-hydroxy-benzonitrile monohydrochloride]
steady state IGF-1 change from baseline (IGF-1 [8]; 10 and 20 mg per day): IGF-1 levels that were above baseline
steady state IGF-1 change from baseline (IGF-1 [8]; 30/day and 40 mg/day): changes from baseline of near zero
Glucose AUC (0-3 hr) Difference (SE), oral glucose tolerance test ([6]; healthy volunteers, 7 days - 5 mg/day, Day −7 vs day after last dose): 3.8 (4.00) h*mmol/L
Glucose AUC (0-3 hr) Difference (SE), oral glucose tolerance test ([6]; healthy volunteers, 10 days - 10 mg/day): 2.4 (3.19) h*mmol/L
Glucose AUC (0-3 hr) Difference (SE), oral glucose tolerance test ([6]; healthy volunteers, 10 days - 20 mg/day): 5.1 (3.12) h*mmol/L
Glucose AUC (0-3 hr) Difference (SE), oral glucose tolerance test ([6]; healthy volunteers, 10 days - 30 mg/day, monohydrochloride): 3.2 h*mmol/L and 3.2 (1.34) h*mmol/L
change in fasting plasma glucose ([6]; healthy volunteers): wasn't significantly changed
treatment emergent adverse events of hyperglycemia ([6]; healthy volunteers): two treatment emergent adverse effects (TEAEs) of asymptomatic hyperglycemia occurred
glucose concentration by 2 hours post challenge [6, 9]: 77 mg/dL and 4.3 mmol/L
peak glucose concentration 1 hour post oral glucose challenge [6, 9]: 12.4 mmol/L and 223 mg/dL
glucose concentration by 2 hours post challenge [6, 10]: 5.8 mmol/L and 104 mg/dL
peak glucose concentration 1 hour post oral glucose challenge [6, 10]: 12.2 mmol/L and 220 mg/dL
